Values quoted from earlier work as cited in patent publication US20210393628A1, “COMPOSITIONS AND METHODS FOR MODULATING T CELL EXHAUSTION” (The Board of Trustees of the Leland Stanford Junior …, priority 2018, published 2021).

System: tonically signaling CAR T cells
Conditions: expanded in the presence of dasatinib

For `Cc1nc(Nc2ncc(C(=O)Nc3c(C)cccc3Cl)s2)cc(N2CCN(CCO)CC2)n1` [dasatinib], the cytotoxicity is listed as “augmented”.
